Data set [1] addresses T1, ATX (recombinant full-length human ATX), lysoPLD activity (Homo sapiens, UniProt Q13822).
T1 construct: consistent with a mature, glycosylated form of the enzyme; TEV cleavage site (C); 9-His (C); 6-His (C); made in house; host or cells: High Five insect cells (baculovirus, p-DEST-8)
The data set is described as follows: Steady-state ATX lysoPLD activity with fluorescent LPC analogue FS-3. As to conditions: for type of inhibition of ATX lysoPLD activity: substrate FS-3; for pKi: substrate FS-3, 37° C. It is filed as biochemical. Here is the method:
Protein expression and purification: The full length human NPP2 gene (NCBI accession #BC034961) followed by a C-terminal TEV cleavage site and a 9-His and 6-His purification tag was cloned and transferred into a p-DEST-8 baculovirus shuttle vector (Invitrogen), and bacmid DNA was generated by standard methods. […] Three days post infection, the supernatant was adjusted to a final concentration of 50 mM Tris pH 8.0, 5 mM CaCl2, and 1 mM NiSO4 and stirred for 10 min. at room temperature. […] Purified ATX was concentrated to approximately 10 mg mL^−1, and dialyzed into the appropriate assay buffer.
Fluorescence was measured (λex=485 nm, λem=520 nm) on a SpectraMax Gemini XPS at 37° C. under buffer conditions similar to the PDE assays but lacking BSA. […] The spontaneous reaction rates were subtracted from the enzyme catalyzed rates.
The steady-state rates (v) of product formation were obtained by fitting the time courses of absorbance or fluorescence change to linear functions. […] FS-3 hydrolysis product formation was quantitated in arbitrary fluorescence units.
The Michaelis constants (KM) and the catalytic turnover rate constants (kcat) were obtained by fitting the [substrate]-dependence of v to a rectangular hyperbola in the form of the Briggs-Haldane equation: […]
in which [S] is [pNP-TMP] or [FS-3]. Inhibitors were treated as reversible inhibitors and analyzed according to the general steady-state linear enzyme inhibitor scheme:
in which E is ATX, S is pNP-TMP or FS-3 substrate, P are the hydrolysis products, and K1 is the dissociation equilibrium constant for inhibitor binding. The values of α and K1 were obtained by fitting the steady-state rates of product formation (v) to the general inhibition equation: […]
in which [I] is the inhibitor concentration, kcat is the maximum catalytic turnover rate, and KS is the Michaelis constant of the substrate obtained in the absence of inhibitor.
The type of inhibition (competitive, noncompetitive, or uncompetitive) depends on the value of α.
The type of inhibition was assigned if the difference between the r^2 values of the fits to the general inhibition equation (Eq 2) and the specific inhibition (i.e. competitive, noncompetitive or uncompetitive) equations was less than 0.01.

Data set [2] relates to Human breast adenocarcinoma cells, MDA-MB-231. Nature of the data set: Matrigel cell invasion assay, breast cancer cells. The data set is classed as cell-based. To be noted: 50 nM ATX. Here is the method:
Cell culture: Human melanoma cells, A2058 (ATCC), were grown in Dulbecco's Modified Eagle's Medium (DMEM) (Gibco), MeI 28 (ATCC), YUSAC2 (Yale University) and MeI-888 (Yale University) were grown in OptiMEM media (Gibco), and HTB 63 (ATCC) were grown in McKoy's 5a medium (ATCC). Human breast adenocarcinoma cells, MDA-MB-231(ATCC) and ovarian carcinoma cells R182 (Gil Mor, Yale University) were grown in RPMI-1640 (Gibco). All cell media was supplemented with 10% (v/v) fetal calf serum (FCS) (Gibco) and 1% (v/v) L-glutamine (Gibco) and grown at 37° C. in a humidified atmosphere containing 5% CO2.
Cell invasion assays: Matrigel matrix (1 mg/ml, Becton Dickenson) was added to […] gelatin-coated membranes placed in cell culture inserts (BD Falcon) and allowed to set for 24 hours at room temperature. The inserts were placed into companion 24 well plates (BD Falcon), and chemo-attractants (ATX ±inhibitors) and/or controls were added to the bottom of the wells. Cells (1×10^6) were added to the inserts and incubated for 3 hours at 37° C. Following incubation, the inserts were removed, fixed in 100% methanol, stained with DiffQuick solution, and mounted on glass slides. Non-invading cells were removed by scraping away the matrigel, and migrating cells were quantitated by counting cell number per high-powered field.

Data set [3] has as its system melanoma cell line HTB 63. Nature of the data set: Cell migration assay, melanoma cell line HTB 63. It is filed as cell-based, human. As to the method:
9B. […] All error bars in this figure indicate the standard error of the mean for nine replicates. The addition of LPA to the experimental groups containing inhibitors (LPA rescue) completely abrogated the small molecule inhibitory effect on cell motility (see discussion). […] Cell culture: Human melanoma cells, A2058 (ATCC), were grown in Dulbecco's Modified Eagle's Medium (DMEM) (Gibco), MeI 28 (ATCC), YUSAC2 (Yale University) and MeI-888 (Yale University) were grown in OptiMEM media (Gibco), and HTB 63 (ATCC) were grown in McKoy's 5a medium (ATCC). Human breast adenocarcinoma cells, MDA-MB-231(ATCC) and ovarian carcinoma cells […] (Gil Mor, Yale University) were grown in RPMI-1640 (Gibco). All cell media was supplemented with 10% (v/v) fetal calf serum (FCS) (Gibco) and 1% (v/v) L-glutamine (Gibco) and grown at 37° C. in a humidified atmosphere containing 5% CO2. Cell motility assays: […] Chemo-attractant (ATX ±inhibitor) and/or controls were placed in the lower half of the chamber, and the cells in the upper chamber. […] Non-migrating cells were removed from the membrane by scraping the top surface. The cells were quantitated by counting the cell number per high powered field in the various wells. Treatments were compared using a chi squared test.

Data set [4] has as its system human melanoma cell line A2058. The data set is described as follows: Melanoma invasion and metastasis in vivo, nude mice with subcutaneous A2058. To be noted: oral gavage of bithionol-cyclodextrin suspension. Here is the method:
(§1) Nude mice were inoculated with human melanoma cell line A2058 subcutaneously in the right flank and observed until the tumor was palpable (about 5-8 days). The mice were then treated with oral gavage of a bithionol-cyclodextrin suspension (A-D) or a cyclodextrin suspension alone (E-H). […] Two of the untreated mice developed large tumors in the right hindquarter (cyan arrow, E) that grossly invaded the right gluteous maximus and could not be dissected without amputation (E&F). […] Of the remaining untreated mice, one developed a modest sized tumor with microscopic evidence of invasion, and a one developed a tumor without gross or microscopic evidence of invasive tumor.
as §1, with “The present invention was also tested in vivo. Nude” for “Nude”

The conditions of data set [5]: oral, ref. [43]; cited from earlier work.
The conditions of data set [6]: oral doses of 50 mg/kg in 3 divided alternate daily doses for 5 days; rabbits, dogs, and humans; cited from earlier work.

These results are taken from patent publication US20110110886A1, “SMALL MOLECULE INHIBITORS OF AUTOTAXIN AND METHODS OF USE” (Yale University, priority 2008, published 2011).

pKi: −log10 of the molar value.

What is called pKi is the Ki on a negative log10 scale, so that one unit is a factor of ten. Consider `Oc1c(Cl)cc(Cl)cc1Sc1cc(Cl)cc(Cl)c1O` [Bithionol], for which, in data set [1], the “type of inhibition of ATX lysoPLD activity” value is on record as “competitively inhibits” and the pKi is 4.18. In data set [2], the “reduction of ATX-stimulated breast cancer cell invasion” value is given as “could be reduced”. Also, the “inhibition of ATX-stimulated HTB63 cell migration” value in data set [3] (50 nM ATX, 3 hours) was “can be inhibited”. The “LPA rescue of inhibited HTB63 cell migration” value in data set [3] (excess LPA (75 nM)) was “rescued by excess LPA”. In addition, the “microscopic appearance of the tumors” value in data set [4] is on record as “self-contained balls of tumor cells (C) with a pushing border”. For the same molecule, the “gross evidence of metastatic melanoma upon necropsy” value in data set [4] (5 mice) is “lacked gross evidence of metastatic melanoma”. Also, the “dose that can be safely dosed in humans” value in data set [5] was 25 mg kg^−1 body weight per day. Besides, the serum levels in data set [6] was 140 to 550 µM.
For the molecule `O=[As](O)(O)c1ccc(Cc2ccc([As](=O)(O)O)cc2)cc1` [NSC 48300], in data set [1], the “type of inhibition of ATX lysoPLD activity” value is listed as “competitively inhibits” and the pKi was 6.62. Also, the “reduction of ATX-stimulated breast cancer cell invasion” value in data set [2] is reported as “could be reduced”.
